Nine compounds from US20240409585A1, “MACROCYCLIC IMMUNOMODULATORS” (priority 2021, published 2024) can be followed below.

Numbered stars: 1 amine (or outer) side, 2 acyl side, 3 side chain; on linkers, the order of the positions; unused ones are H or OH. Bridge positions count the residues as written; N and C are the ends. Square brackets hold non-standard residues; d marks the D form. Peptide text beside a SMILES is read from it. * marks the point of attachment. Bip(4'-COOH) = N[C@@H](Cc1ccc(-c2ccc(C(=O)O)cc2)cc1)C(=O)O; Bip(4'-NHAc) = CC(=O)Nc1ccc(-c2ccc(C[C@H](N)C(=O)O)cc2)cc1; X24 = COc1ccccc1-c1cn(C[C@H](N[*:1])C(=O)[*:2])nn1; Phe(3-CF3) = N[C@@H](Cc1cccc(C(F)(F)F)c1)C(=O)O; Ala(morpholin-4-yl) = N[C@@H](CN1CCOCC1)C(=O)O; Phe(4-COOH) = N[C@@H](Cc1ccc(C(=O)O)cc1)C(=O)O; Bip = N[C@@H](Cc1ccc(-c2ccccc2)cc1)C(=O)O; Abu(3R-NH2) = C[C@@H](N)[C@H](N)C(=O)O; Phe(3-Me) = Cc1cccc(C[C@H](N)C(=O)O)c1; hPhe = N[C@@H](CCc1ccccc1)C(=O)O; Cha = N[C@@H](CC1CCCCC1)C(=O)O; Carboxymethyl = O=C(O)C*; NMeA = CN[C@@H](C)C(=O)O; Orn = NCCC[C@H](N)C(=O)O; Dab = NCC[C@H](N)C(=O)O

One assay deals with T1, Alexa fluor-647 labeled human PD-L1-Ig binding to Jurkat cell line over-expressing human PD-1 (Homo sapiens, UniProt Q15116).
T1 construct: expressed in transfected cells; host or cells: Jurkat
T1 sequence (Q15116 25-288): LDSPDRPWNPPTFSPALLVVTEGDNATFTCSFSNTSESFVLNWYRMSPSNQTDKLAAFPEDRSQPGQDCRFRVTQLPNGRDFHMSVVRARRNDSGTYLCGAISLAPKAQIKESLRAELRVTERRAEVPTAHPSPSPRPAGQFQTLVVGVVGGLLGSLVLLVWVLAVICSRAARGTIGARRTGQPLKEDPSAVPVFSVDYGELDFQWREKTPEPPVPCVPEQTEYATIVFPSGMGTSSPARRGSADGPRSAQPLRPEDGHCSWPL
The assay is described as follows: Jurkat-PD-1 Cell Binding High-Content Screening Assay (CBA): Method 3 (Alexa fluor-647 labeled PD-L1-Ig). Particulars: Jurkat-PD-1 cells, Alexa fluor-647 labeled PD-L1-Ig 177 nM; head μM; read-out: CBA Method 3 μM. In a few lines: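 Readout by high-content imaging of PFA-fixed, Hoechst-stained cells after 1 h with 177 nM (final) Alexa fluor-647 PD-L1-Ig. Compound was added first to hPD-1 Jurkat cells in RPMI plus 10% FCS for 2 h at 37 °C.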
As to `CC(C)C[C@H]1NC(=O)[C@H](C)N(C)C(=O)[C@H](Cc2ccc(C(=O)O)cc2)NC(=O)[C@H](Cc2ccc(-c3ccccc3)cc2)NC(=O)[C@H](CCc2ccccc2)NC(=O)[C@H](Cc2cccc(C(F)(F)F)c2)NC(=O)[C@H](CC(=O)N[C@@H](CC(=O)O)C(=O)O)NC(=O)[C@H](Cc2ccc(C(=O)O)cc2)NC(=O)[C@H](CN2CCOCC2)NC(=O)CSC[C@@H](C(=O)N[C@@H](CCN)C(N)=O)NC(=O)[C@H](CCC(N)=O)NC(=O)[C@H](C(C)C)NC(=O)[C@H](CC2CCCCC2)NC(=O)[C@H](CCN)NC1=O` [Example 5281] ({CH2CO}-[Ala(morpholin-4-yl)][Phe(4-COOH)]D(Asp)[Phe(3-CF3)][hPhe][Bip][Phe(4-COOH)][NMeA][dL][Dab][Cha]VQC[Dab]-NH2; thioether N-14), the IC50 amounted to 0.16 µM. Still for that read-out and setting: the same measure for `Cc1cccc(C[C@@H]2NC(=O)[C@H](CC(=O)O)NC(=O)[C@H](Cc3ccc(-c4ccc(C(=O)O)cc4)cc3)NC(=O)[C@H](CN3CCOCC3)NC(=O)CSC[C@@H](C(=O)N[C@@H](CCN)C(N)=O)NC(=O)[C@H](CCC(=O)O)NC(=O)[C@H](C(C)C)NC(=O)[C@H](CC3CCCCC3)NC(=O)[C@H](CCN)NC(=O)[C@@H](CC(C)C)NC(=O)[C@H](C)N(C)C(=O)[C@H](Cc3ccc(C(=O)O)cc3)NC(=O)[C@H](Cc3ccc(-c4ccccc4)cc3)NC(=O)[C@H](Cc3ccc(-c4ccc(C(=O)O)cc4)cc3)NC2=O)c1` [Example 5093] ({CH2CO}-[Ala(morpholin-4-yl)][Bip(4'-COOH)]D[Phe(3-Me)][Bip(4'-COOH)][Bip][Phe(4-COOH)][NMeA][dL][Dab][Cha]VEC[Dab]-NH2; thioether N-14): 0.16 µM. As for `CC(C)C[C@@H]1NC(=O)[C@H](Cc2c[nH]c3ccccc23)NC(=O)[C@H](CC(=O)O)NC(=O)[C@H](Cc2ccc(C(=O)O)cc2)NC(=O)[C@H](Cc2ccc(OCC(=O)O)cc2)NC(=O)CSC[C@@H](C(=O)N[C@@H](CCN)C(N)=O)NC(=O)[C@H](C(C)C)NC(=O)[C@H]([C@@H](C)O)NC(=O)[C@H](CC2CCCCC2)NC(=O)[C@H](CCN)NC(=O)[C@@H](CC(C)C)NC(=O)[C@H](C)N(C)C(=O)[C@H](C(C)C)NC(=O)[C@H](Cc2ccc(-c3ccccc3)cc2)NC1=O` [Example 5141] ({CH2CO}-Y(Carboxymethyl)[Phe(4-COOH)]DWL[Bip]V[NMeA][dL][Dab][Cha]TVC[Dab]-NH2; thioether N-14), the IC50 was determined as 0.02 µM. Still for that read-out and setting: the same measure for `CC(=O)Nc1ccc(-c2ccc(C[C@@H]3NC(=O)[C@H](Cc4cccc(C)c4)NC(=O)[C@H](CC(=O)O)NC(=O)[C@H](Cc4ccc(C(=O)O)cc4)NC(=O)[C@H](CC4CCCCC4)NC(=O)CSC[C@@H](C(=O)N[C@@H](CCN)C(N)=O)NC(=O)[C@H](CCC(=O)O)NC(=O)[C@H](C(C)C)NC(=O)[C@H](CC4CCCCC4)NC(=O)[C@H](CCN)NC(=O)[C@@H](CC(C)C)NC(=O)[C@H](C)N(C)C(=O)[C@H](Cc4ccc(C(=O)O)cc4)NC(=O)[C@H](Cc4ccc(-c5ccccc5)cc4)NC3=O)cc2)cc1` [Example 5199] ({CH2CO}-[Cha][Phe(4-COOH)]D[Phe(3-Me)][Bip(4'-NHAc)][Bip][Phe(4-COOH)][NMeA][dL][Dab][Cha]VEC[Dab]-NH2; thioether N-14): 0.01 µM; for `COc1ccccc1-c1cn(C[C@@H]2NC(=O)[C@H](Cc3ccc(C(=O)O)cc3)NC(=O)[C@H](Cc3cccc(C(F)(F)F)c3)NC(=O)[C@H](CC(=O)O)NC(=O)[C@H](Cc3ccc(C(=O)O)cc3)NC(=O)[C@H](CN3CCOCC3)NC(=O)CSC[C@@H](C(=O)N[C@@H](CCN)C(N)=O)NC(=O)[C@H](CCC(=O)O)NC(=O)[C@H](C(C)C)NC(=O)[C@H](CC3CCCCC3)NC(=O)[C@H](CCN)NC(=O)[C@@H](CC(C)C)NC(=O)[C@H](C)N(C)C(=O)[C@H](Cc3ccc(C(=O)O)cc3)NC2=O)nn1` [Example 5197] ({CH2CO}-[Ala(morpholin-4-yl)][Phe(4-COOH)]D[Phe(3-CF3)][Phe(4-COOH)][X24][Phe(4-COOH)][NMeA][dL][Dab][Cha]VEC[Dab]-NH2; thioether N-14): 0.45 µM.

Still in this assay, the particulars now being: Jurkat-PD-1 cells, Alexa fluor-647 labeled PD-L1-Ig 177 nM; nM; read-out: CBA Method 3.
`CC(C)C[C@@H]1NC(=O)[C@H](Cc2c[nH]c3ccccc23)NC(=O)[C@H](CC(=O)O)NC(=O)[C@H](Cc2ccc(-c3ccc(C(=O)O)cc3)cc2)NC(=O)[C@H](CN2CCOCC2)NC(=O)CSC[C@@H](C(=O)N[C@@H](CCN)C(N)=O)NC(=O)[C@H](CCC(=O)O)NC(=O)[C@H](C(C)C)NC(=O)[C@H](CC(C)C)NC(=O)[C@H](CC(N)=O)NC(=O)[C@@H](CC(C)C)NC(=O)[C@H](C)N(C)C(=O)[C@H](C(C)C)NC(=O)[C@H](Cc2ccc(-c3ccccc3)cc2)NC1=O` [Example 5124] ({CH2CO}-[Ala(morpholin-4-yl)][Bip(4'-COOH)]DWL[Bip]V[NMeA][dL]NLVEC[Dab]-NH2; thioether N-14): the IC50 is 0.0026 µM. With `CC(C)C[C@H]1NC(=O)[C@H](C)N(C)C(=O)[C@H](CCC(N)=O)NC(=O)[C@H](Cc2ccc(-c3ccccc3)cc2)NC(=O)[C@H](CCc2ccccc2)NC(=O)[C@H](Cc2cccc(C(F)(F)F)c2)NC(=O)[C@H](CC(=O)O)NC(=O)[C@H](CCC(N)=O)NC(=O)[C@H]([C@@H](C)N)NC(=O)CSC[C@@H](C(=O)N[C@@H](CCN)C(N)=O)NC(=O)[C@H](CCCN)NC(=O)[C@H](C(C)C)NC(=O)[C@H](CC2CCCCC2)NC(=O)[C@H](CCN)NC1=O` [Example 5247] ({CH2CO}-[Abu(3R-NH2)]QD[Phe(3-CF3)][hPhe][Bip]Q[NMeA][dL][Dab][Cha]V[Orn]C[Dab]-NH2; thioether N-14), the IC50 is 0.0017 µM. On the same count and under the same terms, next, `Cc1cccc(C[C@@H]2NC(=O)[C@H](CC(=O)O)NC(=O)[C@H](Cc3ccc(C(=O)O)cc3)NC(=O)[C@H](C)NC(=O)CSC[C@@H](C(=O)N[C@@H](CCN)C(N)=O)NC(=O)[C@H](CC(=O)O)NC(=O)[C@H](C(C)C)NC(=O)[C@H](CC3CCCCC3)NC(=O)[C@H](CCN)NC(=O)[C@@H](CC(C)C)NC(=O)[C@H](C)N(C)C(=O)[C@H](Cc3ccc(C(=O)O)cc3)NC(=O)[C@H](Cc3ccc(-c4ccccc4)cc3)NC(=O)[C@H](Cc3ccc(C(=O)O)cc3)NC2=O)c1` [Example 5135] ({CH2CO}-A[Phe(4-COOH)]D[Phe(3-Me)][Phe(4-COOH)][Bip][Phe(4-COOH)][NMeA][dL][Dab][Cha]VDC[Dab]-NH2; thioether N-14): 0.0068 µM; `CC(C)C[C@H]1NC(=O)[C@H](C)N(C)C(=O)[C@H](Cc2ccc(OCC(=O)O)cc2)NC(=O)[C@H](Cc2ccc(-c3ccccc3)cc2)NC(=O)[C@H](Cc2ccc(OCC(=O)O)cc2)NC(=O)[C@H](Cc2c[nH]c3ccccc23)NC(=O)[C@H](CC(=O)O)NC(=O)[C@H](Cc2ccc(-c3ccc(C(=O)O)cc3)cc2)NC(=O)[C@H](CN2CCOCC2)NC(=O)CSC[C@@H](C(=O)N[C@@H](CCN)C(N)=O)NC(=O)[C@H](CCC(=O)O)NC(=O)[C@H](C(C)C)NC(=O)[C@H](CC2CCCCC2)NC(=O)[C@H](CCN)NC1=O` [Example 5117] ({CH2CO}-[Ala(morpholin-4-yl)][Bip(4'-COOH)]DWY(Carboxymethyl)[Bip]Y(Carboxymethyl)[NMeA][dL][Dab][Cha]VEC[Dab]-NH2; thioether N-14): 0.0097 µM.
